Test results taken from patent US12576030B2, “Compositions for delivery of codon-optimized mRNA” (Translate Bio, Inc., priority 2020, dated 2026).
“Also recorded” adds a separate entry of the source.

Tested on: male CD1 mice
Test: Luciferase radiance in lung after pulmonary delivery of FFL mRNA-LNPs
Type: in vivo
Settings: for potency as determined by the average radiance detected in mouse lungs: FFL mRNA-LNP, single intratracheal administration via nebulization, about 5 hours post-dose
Procedure: About 150 cationic lipids were tested. (FIG. 7). Each cationic lipid was used in preparing lipid nanoparticles encapsulating mRNA encoding firefly luciferase protein (FFL mRNA) according to methods known in the art. For example, suitable methods for mRNA encapsulation include methods described in International Publication Nos. WO2016/004318 and WO 2018/089801, which is hereby incorporated by reference in its entirety. The tested lipid nanoparticles comprised a lipid component consisting of a cationic lipid, a non-cationic lipid (DOPE), a PEG-modified lipid (DMG-PEG2K), and optionally cholesterol.
Lipid nanoparticle formulations comprising FFL mRNA were administered to male CD1 mice by a single intratracheal administration via nebulization using a Microsprayer®. At approximately 5 hours post-dose, the animals were dosed with luciferin by intraperitoneal injection and all animals were imaged using an IVIS imaging system to measure luciferase production in the lung. […] Some cationic lipids remarkably had greater than 50-fold increase in pulmonary protein expression as compared to other cationic lipids.

Compound | potency as determined by the average radiance detected in mouse lungs | potency as determined by the average radiance detected in mouse lungs (listed as REP-E3-E10) | historical radiance/expression of pulmonary-delivered FFL mRNA in LNP (LNP comprising the named cationic lipid, pulmonary-delivered (e.g., nebulized))
CCCCC/C=C\C/C=C\CCCCCCCC(=O)OCC(COC(=O)CCCCCCC/C=C\C/C=C\CCCCC)(COC(=O)CCCCCCC/C=C\C/C=C\CCCCC)NCCS(=O)(=O)NCCN(C)C [GL-TES-SA-DME-E18-2, 2-((2-(N-(2-(dimethylamino)ethyl)sulfamoyl)ethyl)amino)-2-((((9Z,12Z)-octadeca-9,12-dienoyl)oxy)methyl)propane-1,3-diyl (9Z,9′Z,12Z,12′Z)-bis(octadeca-9,12-dienoate)] | performed particularly well; also recorded: particularly high potency | – | –
CCCCC/C=C\C/C=C\CCCCCCCC(=O)OCC(COC(=O)CCCCCCC/C=C\C/C=C\CCCCC)(COC(=O)CCCCCCC/C=C\C/C=C\CCCCC)NCCS(=O)(=O)NCCCN(C)C [GL-TES-SA-DMP-E18-2] | performed particularly well; also recorded: particularly high potency | – | –
CCCCCCCCC(O)CN(CCCC(=O)OCCN1CC(C)N(CCOC(=O)CCCN(CC(O)CCCCCCCC)CC(O)CCCCCCCC)CC1C)CC(O)CCCCCCCC (centres unmarked) [HEP-E3-E10] | performed particularly well | particularly high potency | –
CCCCCCCCC(O)CN(CCCCC(=O)OCCN1CC(C)N(CCOC(=O)CCCCN(CC(O)CCCCCCCC)CC(O)CCCCCCCC)CC1C)CC(O)CCCCCCCC (centres unmarked) [HEP-E4-E10] | performed particularly well; also recorded: particularly high potency | – | –
CC(C)CCCC(C)C1CCC2C3CC=C4CC(OC(=O)CCc5cnc[nH]5)CCC4(C)C3CCC12C (centres unmarked) [ICE, imidazole cholesterol ester, reference compound] | – | – | around 10^4 p/s/cm^2sr
CCCCCCCCOC(=O)CC(CC(=O)OCCCCCCCC)(OC(=O)CCN(C)C)C(=O)OCCCCCCCC [TL1-01D-DMA, trioctyl 2-((3-(dimethylamino)propanoyl)oxy)propane-1,2,3-tricarboxylate] | performed particularly well; also recorded: particularly high potency | – | –
CCCCCCCCCCCCCCOC(=O)CC(CC(=O)OCCCCCCCCCCCCCC)(OC(=O)CCN(C)C)C(=O)OCCCCCCCCCCCCCC [TL1-04D-DMA] | performed particularly well; also recorded: particularly high potency | – | –
